From patent US6790825B2, “Method of using secretin and compositions made therefrom for the treatment of autism and other neurological, behavioral and immunological disorders” (Repligen Corporation, priority 1997, dated 2004)
Entries after “also recorded” stand apart in the source; their conditions may differ. No end group written: not given here.

Key:
[1] = test system: patient, a child with symptoms of autism; assay: Daily transdermal secretin with DMSO in the same patient (Example 2); format: in vivo, human
Method: At the time of this treatment, the patient was […]. Secretin was administered transdermally using pharmaceutical grade dimethyl sulfoxide (DMSO) (generally 99.9% pure) available from Clinic Service Co., Box 2512, Hemet Calif. 92543. The secretin (Secretin-Ferring) was administered daily in a dosage of about 75 CU over a five day period (i.e., about 15 CU daily). For each treatment, about 4 drops of DMSO were placed onto the skin of the patient, about 15 CU of the crystalline secretin was placed onto the DMSO, and the composition was rubbed into the skin.

[2] = test system: patient, a child with symptoms of autism; assay: Intravenous secretin infusion in a child with symptoms of autism (Example 1): behavioral and biomedical changes; format: in vivo, human
Description: The present invention will be better understood from the following examples which are given by way of illustration and not by way of limitation. The patient, the same in both examples, is a child with symptoms of autism.
The patient in the present examples developed normally […], with the exception of gastrointestinal problems (i.e., chronic diarrhea and constipation) which began at about six months. At about thirteen months, when whole milk was introduced into their diet, the patient began having reoccurring ear infections. At about fourteen months, the patient appeared to lose the ability to process language, first receptively (at about 14 months) then expressively (at about 16 months). The patient also experienced episodes of “shivers” that appeared to be intermittent seizures.
After consulting with numerous neurologists, pediatricians, child development specialists, audiologists, endocrinologists, allergists, and other medical professionals, no consistent diagnosis had been reached. […] The term autism is used herein for reference purposes only, and this invention is intended to apply to any number of pervasive developmental disorders as well as neurological and immunological disorders.
(§1) When the patient was […], the secretin was administered by way of an infusion as part of an upper gastrointestinal endoscopy. The secretin was used in this diagnostic procedure at the request of the patient's parents, one of which is an inventor of the present invention. The secretin used in this procedure is known as Secretin-Ferring available from Ferring Laboratories, Inc., Suffern, N.Y. (See Appendix A). The secretin was dissolved in a […] solution of sodium chloride and administered in a dosage of 2 clinical units (CU) per kilogram (kg) body weight by intravenous injection over one minute. (I.E. 30 IU IV for approximately 15 kilograms of body weight.)
(§2) The diagnostic tests performed on the patient during this procedure also indicated gastric inflammation. […] The following Table I summarizes the improvements observed in the patient within 3 weeks after the infusion of secretin.
Biomedical changes were also measured in the patient.
At the request of the patient's parents, a second infusion of secretin was performed about 9 months after the first infusion, and a third infusion of secretin was performed about three months after the second infusion.

abnormal opioid peptides = settings: autistic children that responded to casein free and gluten free diet; measured before and after infusion; cited from earlier work
pancreas = assay: Pancreatic juice release after secretin infusion during upper gastrointestinal endoscopy (Example 1); format: in vivo, human; settings: immediately after 2 CU/kg i.v. over one minute; usual rate 1-2 ml/min
Method: as §1, §2

## secretin (HSDGTFTSELSRLRDSARLQRLLQGLV-NH2; ends and bridges not checked; UniProt P63298 33-59, looked up) [polypeptide hormone secreted by the mucosa of the duodenum and upper jejunum; used as Secretin-Ferring from Ferring Laboratories]
[1]; about 15 CU daily with about 4 drops DMSO rubbed into the skin, compared with infusion
  Improvements in the patient on daily transdermal administration: even more dramatic and significant improvements
[1]; daily transdermal dose stopped
  Effect of stopping the daily dose: autistic behavioral symptoms return
[1]; within about 6 months, about 15 CU daily transdermally with DMSO
  Language progress: progressed to spontaneous and conversational language
[2]; after the infusion
  SPECT scan: perfusion of the right posterior parietal and right temporal lobes (blood flow in the brain): improved; also recorded: increased blood flow in the brain
[2]; after the secretin administration in Example 1
  Measles, mumps and rubella antibodies: reduction of measles, mumps and rubella antibodies
[2]; after the treatment, dropped from 5.8 before
  Rubella titers: 2.3
[2]; at about 5 weeks after the first infusion, behavioral improvements continued
  Rate of the patient's progress: appeared to decrease
[2]; before infusion: Abnormal bowel movements, 2 CU/kg i.v.
  Progress within 3 weeks after the secretin infusion: bowel movements: Normal bowel movements.
[2]; before infusion: Consistent sleeping problems, up numerous times each night, 2 CU/kg i.v.
  Progress within 3 weeks after the secretin infusion: sleeping problems: Has slept through almost every night
[2]; before infusion: Diapers only, 2 CU/kg i.v.
  Progress within 3 weeks after the secretin infusion: toilet training: Completely potty trained.
[2]; before infusion: Did not imitate commands, 2 CU/kg i.v.
  Progress within 3 weeks after the secretin infusion: imitation of commands: Will imitate almost any multi-step
[2]; before infusion: Infrequent (1-2 times/week) spinning episodes, 2 CU/kg i.v.
  Progress within 3 weeks after the secretin infusion: spinning episodes: No spinning episodes.
[2]; before infusion: Limited Diet Preferences, 2 CU/kg i.v.
  Progress within 3 weeks after the secretin infusion: diet preferences: No Change
[2]; before infusion: Minimal eye contact, 2 CU/kg i.v.
  Progress within 3 weeks after the secretin infusion: eye contact: Eye contact 75% of the time.
[2]; before infusion: No apparent connections made, 2 CU/kg i.v.
  Progress within 3 weeks after the secretin infusion: connections between language and objects: Many connections made between
[2]; before infusion: No flash cards, 2 CU/kg i.v.
  Progress within 3 weeks after the secretin infusion: flash cards: 40-50 flash cards.
[2]; before infusion: No interest in drawing, 2 CU/kg i.v.
  Progress within 3 weeks after the secretin infusion: interest in drawing: Wants to draw constantly. Will draw
[2]; before infusion: No response, 2 CU/kg i.v.
  Progress within 3 weeks after the secretin infusion: response to request for gestures: Responds to all kinds of things
[2]; before infusion: No sentences, 2 CU/kg i.v.
  Progress within 3 weeks after the secretin infusion: sentences: Short sentences - such as; “I love you”,
[2]; before infusion: Two words, 2 CU/kg i.v.
  Progress within 3 weeks after the secretin infusion: words spoken: 100's of words - will repeat some
[2]; before infusion: Watch Videos, 2 CU/kg i.v.
  Progress within 3 weeks after the secretin infusion: interaction with videos: Now, gets “involved” interactively
[2]; blood tests after the treatment
  Serotonin levels in blood: rise in serotonin levels; also recorded: increase in serotonin levels
[2]; no change, before infusion: excessive, approximately 50 cups per day, 2 CU/kg i.v.
  Progress within 3 weeks after the secretin infusion: water consumption: change approximately 50 cups per cups per day
[2]; second about 9 months after the first, third about three months after the second
  Results of second and third infusions: achieved the same results
[2]; within days after administration, no change of diet
  Chronic abnormal bowel movements: became normal
Abnormal opioid peptides
  Abnormal opioid peptides after the secretin infusion: disappeared
pancreas
  Amount of pancreatic juice released: approximately 10 ml/min
